# Data taken from patent US20240101538A1, “PROTEIN-PROTEIN INTERACTION MODULATORS OF AURORA KINASE A AND THEIR USE IN THE PREVENTION AND/OR TREATMENT OF CANCER” (EBERHARD KARLS UNIVERSITÄT TÜBINGEN, priority 2020, published 2024).
# Columns and labels:
# Aurora A = Aurora A (Homo sapiens (Human), UniProt O14965); assay: ADP-Glo Kinase Assay with Aurora A Kinase Enzyme System; type: biochemical; settings: compounds tested from 1 μM
# Protocol: To measure the effect of the compounds on the activity of AURKA, the IC50 of the compounds was determined with the ADP-Glo™ Kinase Assay (Promega, V9101) and the Aurora A Kinase Enzyme System (Promega, V1931). The assay was performed according to the manufacturer's instructions in a white 384-well plate format (Corning Assay Plate, LOT 32216024) by using 1.4 ng/μl Aurora A, […] and 0.1 μg/μl myelin basic protein (MBP) substrate in a total volume of 6 μl (transferred with Integra viaflo 96/384 handheld channel pipette). To generate a dose-response curve, a 3-fold serial dilution of the compounds was tested starting from 1 μM. The kinase was pre-incubated for 10 min at RT with the respective compound, before the substrate mix containing MBP and ATP was added. After 60 min at RT, 6 μl of the ADP-Glo reagent were added and incubated for another 60 min at RT. Afterwards 12 μl of the detection reagent were added and incubated for 30 min at RT before the luminescence was measured with an integration time of 500 ms by using a Filter Max F5 multi-mode microplate reader from Molecular Devices. As a negative control, the reaction was performed with MBP, ATP and Aurora A only. […]
# AURKA = AURKA (Homo sapiens (Human), UniProt O14965); assay: Binding to AURKA
# AURKA, sequence (O14965 whole entry): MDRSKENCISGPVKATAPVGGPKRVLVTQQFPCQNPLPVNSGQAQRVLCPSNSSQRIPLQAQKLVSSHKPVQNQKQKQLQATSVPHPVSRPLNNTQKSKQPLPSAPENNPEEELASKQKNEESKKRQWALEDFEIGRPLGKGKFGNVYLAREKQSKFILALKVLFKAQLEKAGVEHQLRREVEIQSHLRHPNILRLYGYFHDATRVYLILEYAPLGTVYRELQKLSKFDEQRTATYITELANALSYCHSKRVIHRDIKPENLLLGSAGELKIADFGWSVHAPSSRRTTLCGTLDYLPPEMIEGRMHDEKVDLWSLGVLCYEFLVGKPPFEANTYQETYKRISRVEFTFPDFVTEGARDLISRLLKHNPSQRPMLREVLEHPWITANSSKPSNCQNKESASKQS
# NMP53^−/− cells = assay: Immunofluorescence staining (α-tubulin, DAPI) of normal and abnormal spindles; type: cell-based, murine; settings: different treatment times
# Protocol: The AURKA compounds of this invention trigger the formation of abnormal (multipolar and monopolar) spindles a few minutes after application. A. Representative images of immunofluorescence stainings with antibodies against α-tubulin (light grey) and DAPI (surrounded by a dashed white line) of a tumor cell line (NMP53^−/− cells) treated for 24 hours with compound 3a [N-(2-fluoro-5-((4-(1-methyl-1H-pyrazole-4-yl)benzyl)amino)phenyl)-3-(furan-2-yl)-propanamide] or DMSO as a control. B. Quantification of normal and abnormal spindles of immunofluorescence staining with antibodies against α-tubulin and DAPI of a tumor cell line (NMP53^−/− cells) after different treatment times with compound 3a according to this invention or DMSO as a control.
# The AURKA compounds of this invention trigger the formation of abnormal (e.g. multipolar and/or monopolar) spindles in tumor cell lines (NMP53^−/− cells) (FIG. 8).
# Aurora A, sequence (O14965 whole entry): as above
SMILES,IC50 (Aurora A; read-out: IC50 (AURKA)) [nM],binding to AURKA (AURKA),formation of abnormal spindles (NMP53^−/− cells),IC50 (AURKA) (Aurora A)
"O=C(CCc1ccco1)Nc1cc(NCc2ccc(-c3cn[nH]c3)cc2)ccc1F [Compound 2c, N-(5-((4-(1H-pyrazole-4-yl)benzyl)amino)-2-fluorophenyl)-3-(furan-2-yl)propanamide]",259,strong binding,,
"Cn1cc(-c2ccc(CNc3ccc(F)c(NC(=O)CCc4ccco4)c3)cc2)cn1 [Compound 3a, N-(2-fluoro-5-((4-(1-methyl-1H-pyrazole-4-yl)benzyl)amino)phenyl)-3-(furan-2-yl)propanamide]",,,induce the formation of abnormal spindles within a few minutes,no kinase inhibition
